Structures can show the parent of a compound that is named as a salt.
Tests used:
PKA catalytic domain = target: T1, PKA catalytic domain (Homo sapiens, UniProt P17612); test: Measurement of PKA kinase inhibitory activity (IC50); format: biochemical; details: 1 nM enzyme, 40 μM ATP/γ33P-ATP, 5 μM peptide substrate […], 20 minutes; read-out: IC50, concentration required to inhibit 50% of the PKA activity
T1 construct: using the PKA catalytic domain from Upstate Biotechnology (#14-440); purchased Upstate Biotechnology 14-440
Procedure: A final concentration of 1 nM enzyme is used in a buffer that includes 20 mM MOPS pH 7.2, 40 μM ATP/γ^33P-ATP and 5 μM substrate. Compounds are added in dimethylsulphoxide (DMSO) solution to a final DMSO concentration of 2.5%. The reaction is allowed to proceed for 20 minutes before addition of excess orthophosphoric acid to quench activity. Unincorporated γ^33P-ATP is then separated from phosphorylated proteins on a Millipore MAPH filter plate. The plates are washed, scintillant is added and the plates are then subjected to counting on a Packard Topcount.

[1] = target: T2, protein kinase B (PKB), fusion protein PKB-PIF (Homo sapiens, UniProt P31751); test: Measurement of PKB kinase inhibitory activity (IC50); format: biochemical; details: 0.6 nM enzyme, 30 μM ATP/γ33P-ATP, 25 μM AKTide-2T substrate, 20 minutes; read-out: IC50, concentration required to inhibit 50% of the PKB activity
T2 construct: made in house
Procedure: The inhibition of protein kinase B (PKB) activity by compounds can be determined essentially as described by Andjelkovic et al. (Mol. Cell. Biol. 19, 5061-5072 (1999)) but using a fusion protein described as PKB-PIF and described in full by Yang et al (Nature Structural Biology 9, 940-944 (2002)). […] A final concentration of 0.6 nM enzyme is used in a buffer that includes 20 mM MOPS pH 7.2, 30 μM ATP/γ^33P-ATP and 25 μM substrate. Compounds are added in DMSO solution to a final DMSO concentration of 2.5%. The reaction is allowed to proceed for 20 minutes before addition of excess orthophosphoric acid to quench activity. The reaction mixture is transferred to a phosphocellulose filter plate where the peptide binds and the unused ATP is washed away. After washing, scintillant is added and the incorporated activity measured by scintillation counting.
The % inhibition of the PKB activity is calculated and plotted in order to determine the concentration of test compound required to inhibit 50% of the PKB activity (IC50).

T2 sequence (P31751 with tags, fused parts or gaps limits assumed): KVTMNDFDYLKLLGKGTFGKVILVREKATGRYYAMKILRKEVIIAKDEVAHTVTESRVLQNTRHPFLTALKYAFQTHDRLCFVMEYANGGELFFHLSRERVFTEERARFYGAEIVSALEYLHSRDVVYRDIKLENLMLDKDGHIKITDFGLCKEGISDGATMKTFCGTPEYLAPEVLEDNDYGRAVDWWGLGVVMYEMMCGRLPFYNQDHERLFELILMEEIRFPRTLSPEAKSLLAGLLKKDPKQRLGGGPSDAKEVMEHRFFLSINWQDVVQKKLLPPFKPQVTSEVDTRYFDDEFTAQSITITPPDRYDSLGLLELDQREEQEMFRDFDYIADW

Row | IC50 (PKA catalytic domain) [nM] | IC50 [1] [nM] | SMILES
1 | < 100 | < 100 | NCCC(c1ccc(-c2cn[nH]c2)cc1)c1ccc(Cl)c(F)c1 (stereo not shown) [Example 1, 3-(4-Chloro-3-fluoro-phenyl)-3-[4-(1H-pyrazol-4-yl)-phenyl]-propylamine]
2 | – | < 100 | NCC[C@H](c1ccc(-c2cn[nH]c2)cc1)c1ccc(Cl)c(Cl)c1 [Example 2, (R)-3-(3,4-Dichloro-phenyl)-3-[4-(1H-pyrazol-4-yl)-phenyl]-propylamine]
3 | < 1000 | < 1000 | Clc1ccc(C2(c3ccc(-c4cn[nH]c4)cc3)CCNC2)cc1 (stereo not shown) [Example 81, 4-{4-[3-(4-Chloro-phenyl)-pyrrolidin-3-yl]-phenyl}-1H-pyrazole formate]
4 | < 100 | < 100 | Clc1cccc(C2(c3ccc(-c4cn[nH]c4)cc3)CCNCC2)c1 [Example 84, 4-(3-Chloro-phenyl)-4-[4-(1H-pyrazol-4-yl)-phenyl]-piperidine]
5 | < 1000 | < 1000 | CCc1[nH]ncc1-c1ccc(C2(c3ccc(Cl)cc3)CCNCC2)cc1 [Example 87, 4-(4-Chloro-phenyl)-4-[4-(5-ethyl-1H-pyrazol-4-yl)-phenyl]-piperidine]
6 | – | < 100 | Cc1n[nH]cc1-c1ccc(C2(COc3cccc(-c4nc5ccccc5o4)c3)CCNCC2)cc1 [Example 93, 2-(3-{4-[4-(3-Methyl-1H-pyrazol-4-yl)-phenyl]-piperidin-4-ylmethoxy}-phenyl)-benzooxazole]
7 | < 100 | < 100 | NCCC(O)(c1ccc(-c2cn[nH]c2)cc1)c1ccc(Cl)c(F)c1 (stereo not shown) [Example 95, 3-Amino-1-(4-chloro-3-fluoro-phenyl)-1-[4-(1H-pyrazol-4-yl)-phenyl]-propan-1-ol]
8 | – | < 100 | NCC[C@](O)(c1ccc(Cl)cc1)c1ccc(-c2cn[nH]c2)cc1 [Example 99B, (R)-3-Amino-1-(4-chloro-phenyl)-1-[4-(1H-pyrazol-4-yl)-phenyl]-propan-1-ol]

The remaining lines, values behind:

Row | SMILES | IC50 (PKA catalytic domain) [nM] | IC50 [1] [nM]
9 | NCCC(O)(c1ccc(Cl)cc1)c1ccc(-c2cn[nH]c2)cc1 (racemic) [Example 92, 3-Amino-1-(4-chloro-phenyl)-1-[4-(1H-pyrazol-4-yl)-phenyl]-propan-1-ol] | < 100 | < 100
10 | COc1cccc(OCC2(c3ccc(-c4c[nH]nc4C)cc3)CCNCC2)c1 [Example 77, 4-(3-Methoxy-phenoxymethyl)-4-[4-(3-methyl-1H-pyrazol-4-yl)-phenyl]-piperidine] | < 1000 | < 1000
11 | Cc1n[nH]cc1-c1ccc(C(O)(CN)c2ccc(Cl)cc2)cc1 (stereo not shown) [Example 79, 2-Amino-1-(4-chloro-phenyl)-1-[4-(3-methyl-1H-pyrazol-4-yl)-phenyl]-ethanol] | < 100 | < 100
12 | CCc1n[nH]cc1-c1ccc(C(O)(CN)c2ccc(Cl)cc2)cc1 (stereo not shown) [Example 80, 2-Amino-1-(4-chloro-phenyl)-1-[4-(3-ethyl-1H-pyrazol-4-yl)-phenyl]-ethanol] | < 100 | < 100
13 | COc1ccc(C2(c3ccc(-c4cn[nH]c4)cc3)CNC2)cc1 [Example 82, 4-{-4-[3-(4-Methoxy-phenyl)-azetidin-3-yl]-phenyl}-1H-pyrazole formate] | < 1000 | < 1000
14 | c1cc(C2(c3ccc4c(c3)OCCO4)CCNCC2)ccc1-c1cn[nH]c1 [Example 83, 4-(2,3-Dihydro-benzo[1,4]dioxin-6-yl)-4-[4-(1H-pyrazol-4-yl)-phenyl]-piperidine] | < 100 | < 100
15 | COc1ccc(-c2cccc(C3(c4ccc(-c5cn[nH]c5)cc4)CCNCC3)c2)cc1 [Example 85, 4-(4′-Methoxy-biphenyl-3-yl)-4-[4-(1H-pyrazol-4-yl)-phenyl]-piperidine dihydrochloride] | < 100 | < 1000
16 | COc1ccc(C2(c3ccc(-c4c[nH]nc4C)cc3)CCNCC2)cc1 [Example 86, 4-(4-Methoxy-phenyl)-4-[4-(3-methyl-1H-pyrazol-4-yl)-phenyl]piperidine dihydrochloride] | < 100 | < 100
17 | Clc1ccc(C2(c3ccc(-c4cn[nH]c4C4CC4)cc3)CCNCC2)cc1 [Example 88, 4-(4-Chloro-phenyl)-4-[4-(5-cyclopropyl-1H-pyrazol-4-yl)-phenyl]-piperidine] | < 1000 | < 100
18 | CN(C)c1cccc(C2(c3ccc(-c4cn[nH]c4)cc3)CCNCC2)c1 [Example 89, Dimethyl-(3-{4-[4-(1H-pyrazol-4-yl)-phenyl]-piperidin-4-yl}-phenyl)-amine] | < 1000 | < 1000
19 | COc1ccc(C2(c3ccc(-c4cn[nH]c4)cc3)CCNCC2)cn1 [Example 90, 4-(2-Methoxy-5-pyridin-yl)-4-[4-(1H-pyrazol-4-yl)-phenyl]-piperidine] | < 100 | < 1000
20 | NCC(O)(c1ccc(Cl)cc1)c1ccc(-c2cn[nH]c2)cn1 (stereo not shown) [Example 91, 2-Amino-1-(4-chloro-phenyl)-[5-(1H-pyrazol-4-yl)-pyridin-2-yl]-ethanol hydrochloride] | < 100 | < 1000
21 | NCCC(O)(c1ccc(Cl)cc1)c1ccc(-c2cn[nH]c2)cc1F (stereo not shown) [Example 94, 3-Amino-1-(4-chlorophenyl)-1-[2-fluoro-4-(1H-pyrazol-4-yl)-phenyl]-propan-1-ol-acetic acid salt] | < 100 | < 100
22 | NCCC(O)(c1ccc(-c2cn[nH]c2)cc1)c1ccc(Cl)c(Cl)c1 (stereo not shown) [Example 96, 3-Amino-1-(3,4,-dichlorophenyl)-1-[4-(1H-pyrazol-4-yl)-phenyl]-propan-1-ol] | < 100 | < 100
23 | NCC[C@@](O)(c1ccc(Cl)cc1)c1ccc(-c2cn[nH]c2)cc1 [Example 99A, (S)-3-Amino-1-(4-chloro-phenyl)-1-[4-(1H-pyrazol-4-yl)-phenyl]-propan-1-ol] | < 100 | < 100

From patent publication US20100210617A1, “Aryl-Alkylamines And Heteroaryl-Alkylamines As Protein Kinase Inhibitors” (ASTEX THERAPEUTICS LIMITED, priority 2005, published 2010)
